# Molecular target: T1, human GnRH receptor (Homo sapiens, UniProt P30968)
# T1 construct: expressed in transfected cells; host or cells: RBL cells, stably transfected (in general)
# T1 sequence (P30968 1-328): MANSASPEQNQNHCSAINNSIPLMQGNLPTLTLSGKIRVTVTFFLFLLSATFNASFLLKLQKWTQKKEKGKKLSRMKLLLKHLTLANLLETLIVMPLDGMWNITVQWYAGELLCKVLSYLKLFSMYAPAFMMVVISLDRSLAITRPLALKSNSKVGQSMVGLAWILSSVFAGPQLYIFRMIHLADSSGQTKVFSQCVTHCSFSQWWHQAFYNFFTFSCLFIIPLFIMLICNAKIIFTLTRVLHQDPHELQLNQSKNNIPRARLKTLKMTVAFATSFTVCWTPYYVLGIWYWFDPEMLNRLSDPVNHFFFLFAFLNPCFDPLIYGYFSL
# Assay: Peptide competition radioligand binding displacement assay, human GnRH receptor membranes
# Details: one or more of the peptide competition human receptor binding assays
# In short: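 Membranes for radioligand binding were prepared from RBL cells stably expressing human GnRH receptor, which were lysed by nitrogen cavitation at 900 psi, 4° C. Membranes from HEK293 cells stably transfected with human receptor were held in 10 mM HEPES pH 7.5, 150 mM NaCl, 0.1% BSA. Transiently transfected COS-7 cells were used for other species.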
row,Compound,Ki
1,CN(C(=O)c1ccc(Cl)c(-c2nc3c(F)c(F)c(F)c(F)c3cc2C#N)c1)c1ccccc1OCCCC(=O)O [33-3],≤ 100 nM
2,"COc1ccccc1N(C)C(=O)c1cc(-c2cnc(C(F)(F)F)cc2C#N)c(Cl)cc1OCCCC(=O)O [34-1, 4-{5-chloro-4-(4-cyano-6-trifluoromethyl-pyridin-3-yl)-2-[(2-methoxy-phenyl)-methyl-carbamoyl]-phenoxy}-butyric acid]",≤ 100 nM
3,COc1cc(Cl)ccc1N(C)C(=O)c1cc(-c2cnc(C(F)(F)F)cc2C#N)c(Cl)cc1OCCCC(=O)O [34-2],≤ 100 nM
4,CN(C(=O)c1cc(-c2cnc(C(F)(F)F)cc2C#N)c(Cl)cc1OCCCC(=O)O)c1ccccc1OC(F)(F)F [34-3],≤ 100 nM
5,COc1cc(F)ccc1N(C)C(=O)c1cc(-c2cnc(C(F)(F)F)cc2C#N)c(Cl)cc1OCCCC(=O)O [34-4],≤ 100 nM
6,COCc1ccccc1N(C)C(=O)c1cc(-c2cnc(C(F)(F)F)cc2C#N)c(Cl)cc1OCCCC(=O)O [34-5],≤ 100 nM
7,COc1c(Cl)cccc1N(C)C(=O)c1cc(-c2cnc(C(F)(F)F)cc2C#N)c(Cl)cc1OCCCC(=O)O [34-6],≤ 100 nM
8,COc1ccc(Cl)cc1N(C)C(=O)c1cc(-c2cnc(C(F)(F)F)cc2C#N)c(Cl)cc1OCCCC(=O)O [34-7],≤ 100 nM
9,CN(C(=O)c1cc(-c2cnc(C(F)(F)F)cc2C#N)c(Cl)cc1OCCCC(=O)O)c1ccccc1 [34-8],≤ 100 nM
10,COCc1cc(Cl)ccc1N(C)C(=O)c1cc(-c2cnc(C(F)(F)F)cc2C#N)c(Cl)cc1OCCCC(=O)O [34-9],≤ 100 nM
11,COC(=O)c1ccccc1N(C)C(=O)c1cc(-c2cnc(C(F)(F)F)cc2C#N)c(Cl)cc1OCCCC(=O)O [34-10],≤ 100 nM
12,COc1ccc(C)cc1N(C)C(=O)c1cc(-c2cnc(C(F)(F)F)cc2C#N)c(Cl)cc1OCCCC(=O)O [34-12],≤ 100 nM
13,COc1ccc(OC)c(N(C)C(=O)c2cc(-c3cnc(C(F)(F)F)cc3C#N)c(Cl)cc2OCCCC(=O)O)c1 [34-13],≤ 100 nM
14,CN(C(=O)c1cc(-c2cnc(C(F)(F)F)cc2C#N)c(Cl)cc1OCCCC(=O)O)c1ccccc1-c1cnco1 [34-15],≤ 100 nM
15,CN(C(=O)c1cc(-c2cnc(C(F)(F)F)cc2C#N)c(Cl)cc1OCCCC(=O)O)c1ccccc1-c1ccco1 [34-16],≤ 100 nM
16,CN(C(=O)c1cc(-c2cnc(C(F)(F)F)cc2C#N)c(Cl)cc1OCCCC(=O)O)c1ccccn1 [34-18],≤ 100 nM
17,COc1cccc(N(C)C(=O)c2cc(-c3cnc(C(F)(F)F)cc3C#N)c(Cl)cc2OCCCC(=O)O)n1 [34-19],≤ 100 nM
18,Cc1cccnc1N(C)C(=O)c1cc(-c2cnc(C(F)(F)F)cc2C#N)c(Cl)cc1OCCCC(=O)O [34-20],≤ 100 nM
19,CC(C)CCN(C)C(=O)c1cc(-c2cnc(C(F)(F)F)cc2C#N)c(Cl)cc1OCCCC(=O)O [34-23],≤ 100 nM
20,COCCN(C)C(=O)c1cc(-c2cnc(C(F)(F)F)cc2C#N)c(Cl)cc1OCCCC(=O)O [34-24],≤ 100 nM

row,Compound,Ki
1,CN(CC1CC1)C(=O)c1cc(-c2cnc(C(F)(F)F)cc2C#N)c(Cl)cc1OCCCC(=O)O [34-25],≤ 100 nM
2,COc1cccc(F)c1N(C)C(=O)c1cc(-c2cnc(C(F)(F)F)cc2C#N)c(Cl)cc1OCCCC(=O)O [34-26],≤ 100 nM
3,"COc1ccccc1N(C)C(=O)c1cc(-c2cnc(C(F)(F)F)cc2C#N)c(Cl)cc1OCCCc1nnn[nH]1 [35-1, 4-Chloro-5-(4-cyano-6-trifluoromethyl-pyridin-3-yl)-N-(2-methoxy-phenyl)-N-methyl-2-[3-(1H-tetrazol-5-yl)-propoxy]-benzamide]",≤ 100 nM
4,"CN(C(=O)c1ccc(Cl)c(-c2cnc(C(F)(F)F)cc2C#N)c1)c1ccccc1OCCC(=O)OCOC(=O)C(C)(C)C [36-1, 2,2-Dimethyl-propionic acid 3-(2-{[4-chloro-3-(4-cyano-6-trifluoromethyl-pyridin-3-yl)-benzoyl]-methyl-amino}-phenoxy)-propionyloxymethyl ester]",≤ 100 nM
5,"COc1ccccc1N(C)C(=O)c1cc(-c2cnc(C(F)(F)F)cc2C#N)c(Cl)cc1OCCCC(=O)OCOC(=O)C(C)(C)C [36-2, 4-{5-chloro-4-(4-cyano-6-trifluoromethyl-pyridin-3-yl)-2-[(2-methoxy-phenyl)-methyl-carbamoyl]-phenoxy}-butyric acid 2,2-dimethyl-propionyloxymethyl ester]",≤ 100 nM
6,"CC(OC(=O)CCOc1ccccc1N(C)C(=O)c1ccc(Cl)c(-c2cnc(C(F)(F)F)cc2C#N)c1)OC(=O)OC1CCCCC1 (stereo not drawn) [37-1, 3-(2-{[4-Chloro-3-(4-cyano-6-trifluoromethyl-pyridin-3-yl)-benzoyl]-methyl-amino}-phenoxy)-propionic acid 1-cyclohexyloxycarbonyloxy-ethyl ester]",≤ 100 nM
7,"CC(C)OC(=O)OC(C)OC(=O)CCOc1ccccc1N(C)C(=O)c1ccc(Cl)c(-c2cnc(C(F)(F)F)cc2C#N)c1 (stereo not drawn) [37-2, 3-(2-{[4-Chloro-3-(4-cyano-6-trifluoromethyl-pyridin-3-yl)-benzoyl]-methyl-amino}-phenoxy)-propionic acid 1-isopropoxycarbonyloxy-ethyl ester]",≤ 100 nM
8,"COc1ccccc1N(C)C(=O)c1cc(-c2cnc(C(F)(F)F)cc2C#N)c(Cl)cc1OCCCC(=O)OC(C)OC(=O)OC1CCCCC1 (stereo not drawn) [37-3, 4-{5-chloro-4-(4-cyano-6-trifluoromethyl-pyridin-3-yl)-2-[(2-methoxy-phenyl)-methyl-carbamoyl]-phenoxy}-butyric acid 1-cyclohexyloxycarbonyloxy-ethyl ester]",≤ 100 nM
9,"COc1ccccc1N(C)C(=O)c1cc(-c2cnc(C(F)(F)F)cc2C#N)c(Cl)cc1OCCCC(=O)OC(C)OC(=O)OC(C)C (stereo not drawn) [37-4, 4-{5-chloro-4-(4-cyano-6-trifluoromethyl-pyridin-3-yl)-2-[(2-methoxy-phenyl)-methyl-carbamoyl]-phenoxy}-butyric acid 1-isopropoxycarbonyloxy-ethyl ester]",≤ 100 nM
10,"COc1cc(Cl)c(-c2cnc(C(F)(F)F)cc2C#N)cc1C(=O)N(C)c1ccccc1OC [38-1, 4-Chloro-5-(4-cyano-6-trifluoromethyl-pyridin-3-yl)-2-methoxy-N-(2-methoxy-phenyl)-N-methyl-benzamide]",≤ 100 nM
11,"COc1cc(Cl)c(-c2cnc(C(F)(F)F)cc2C#N)cc1C(=O)N(C)c1c(C)cccc1C [39-1, 4-Chloro-5-(4-cyano-6-trifluoromethyl-pyridin-3-yl)-N-(2,6-dimethyl-phenyl)-2-methoxy-N-methyl-benzamide]",≤ 100 nM
12,COC(=O)c1ccccc1N(C)C(=O)c1cc(-c2cnc(C(F)(F)F)cc2C#N)c(Cl)cc1OC [39-2],≤ 100 nM
13,COc1cc(Cl)c(-c2cnc(C(F)(F)F)cc2C#N)cc1C(=O)N(C)c1c(OC)cccc1OC [39-3],≤ 100 nM
14,COc1cc(Cl)c(-c2cnc(C(F)(F)F)cc2C#N)cc1C(=O)N(C)c1c(F)cccc1OC [39-4],≤ 100 nM
15,COc1cc(Cl)c(-c2cnc(C(F)(F)F)cc2C#N)cc1C(=O)N(C)c1cc(F)ccc1OC [39-5],≤ 100 nM
16,COc1cc(Cl)c(-c2cnc(C(F)(F)F)cc2C#N)cc1C(=O)N(C)c1c(F)cccc1F [39-6],≤ 100 nM
17,COc1cc(Cl)c(-c2cnc(C(F)(F)F)cc2C#N)cc1C(=O)N(C)c1ccccc1 [39-7],≤ 100 nM
18,COC(=O)c1ccc(Cl)cc1N(C)C(=O)c1cc(-c2cnc(C(F)(F)F)cc2C#N)c(Cl)cc1OC [39-8],≤ 100 nM
19,COc1cc(Cl)c(-c2cnc(C(F)(F)F)cc2C#N)cc1C(=O)N(C)c1ccccc1OCC(F)(F)F [39-9],≤ 100 nM

# From patent US8481738B2, “Gonadotropin-releasing hormone receptor antagonists and methods relating thereto” (Neurocrine Biosciences, Inc., priority 2007, dated 2013)
